Data on 24 molecules can be found in EP4759814A1, “TRICYCLIC COMPOUND AND USE THEREOF AS MAT2A INHIBITOR” (SK Biopharmaceuticals Co., Ltd., priority 2023, dated 2025).

Some results are limits rather than exact numbers.

For data set [1] the following is noted: Phase 1 clinical trials; cited from earlier work.
The target in data set [2] is T1, MAT2A (Homo sapiens, UniProt P31153).
T1 construct: purchased BPS Bioscience (USA) 71401
Briefly: MAT2A inhibitory activity, colorimetric phosphate detection (PiColorLock) enzyme assay. The conditions noted are these: Test Condition 1 or 2 (not stated which per compound); absorbance at 630 nm. The format is biochemical. The gist of the method: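 Compound preincubated 30 min at room temperature with enzyme, then reacted 1 h with ATP and Met; phosphate read colorimetrically at 630 nm. Condition 1: top 50 µM, 12 ng/µL enzyme, 100 µM ATP, 80 µM Met. Condition 2: top 1 µM, 4 ng/µL enzyme, 300 µM ATP, 150 µM Met. Tris pH 8.0 buffer; IC50 by 4-parameter fit.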

For data set [3], the system named is HCT116 (MTAP del) cell line. Briefly: Cell proliferation inhibition in MTAP-deficient cancer cells, WST-1 assay. The conditions noted are these: Homo sapiens, HCT-116, 120 hours of drug treatment, maximum concentration 10 µM, read-out: HCT116 MTAP^-/- (IC50, cell proliferation inhibited by 50%). The format is cell-based. The gist of the method:
(§1)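 HCT116 MTAP-deleted and isogenic MTAP wild-type cells (1,000 cells/well, 10% FBS RPMI1640) attached 24 h, then treated with 4-fold dilutions from 10 µM for 120 hours. WST-1 added 2 hours, absorbance at 450 nm, normalized to DMSO control as 100%; IC50 from 4-parameter dose-response fit.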
On the technique in general: Tetrazolium dyes change colour on reduction, which living cells bring about.

Data set [4] relates to HCT116 (MTAP WT) cell line. Put plainly: Cell proliferation inhibition in wild-type control cells, WST-1 assay. Type of data set: cell-based. The conditions noted are these: Homo sapiens, HCT-116, 120 hours of drug treatment, maximum concentration 10 µM, read-out: HCT116 WT (IC50, cell proliferation inhibited by 50%). The gist of the method: as §1

T1 sequence (P31153 whole entry): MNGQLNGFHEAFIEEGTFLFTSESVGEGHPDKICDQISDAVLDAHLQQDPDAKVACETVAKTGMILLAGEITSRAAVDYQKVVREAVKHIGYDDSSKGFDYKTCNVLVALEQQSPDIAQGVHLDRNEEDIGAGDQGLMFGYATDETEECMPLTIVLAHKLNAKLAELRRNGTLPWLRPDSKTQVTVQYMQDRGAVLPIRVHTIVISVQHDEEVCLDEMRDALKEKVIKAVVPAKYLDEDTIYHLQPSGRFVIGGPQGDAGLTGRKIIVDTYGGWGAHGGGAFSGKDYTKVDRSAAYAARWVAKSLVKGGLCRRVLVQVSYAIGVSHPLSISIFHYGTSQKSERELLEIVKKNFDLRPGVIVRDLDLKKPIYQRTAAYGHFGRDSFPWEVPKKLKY

In the case of `COc1ccc(-c2c(Nc3ccccn3)[nH]c3c(C4=CCCCC4)c(-c4ccccc4)nn3c2=O)cc1` [AG-270], the hepatotoxicity entry in data set [1] is given as “hepatotoxicity associated with inhibition of UGT1A1”.

Turning to `Cc1cc2c(cc1Br)n(-c1cccnc1C)c(=O)c1nccn12` [Example 78, 7-bromo-8-methyl-5-(2-methylpyridin-3-yl)imidazo[1,2-a]quinoxalin-4(5H)-one], the IC50 in data set [2] was 1 to 100 nM; in data set [3] it was 1 to 100 nM; in data set [4], greater than 10000 nM.

Turning to `Cc1ncccc1-n1c(=O)c2nccn2c2cc(Cl)c(Br)cc21` [Example 79, 7-bromo-8-chloro-5-(2-methylpyridin-3-yl)imidazo[1,2-a]quinoxalin-4(5H)-one], the IC50 in data set [2] lay in the range of 1 to 100 nM; in data set [3], 1 to 100 nM; in data set [4], 1000 to 10000 nM.

As for `Cc1cc2c(cc1Br)n(-c1cccnc1C)c(=O)c1ncc(C)n12` [Example 84, 7-bromo-1,8-dimethyl-5-(2-methylpyridin-3-yl)imidazo[1,2-a]quinoxalin-4(5H)-one], the IC50 is 100 to 1000 nM in data set [2], 1 to 100 nM in data set [3] and greater than 10000 nM in data set [4].

Turning to `Cc1ncccc1-n1c(=O)c2ncc(C)n2c2c(Br)c(C)c(Br)cc21` [Example 85, 7,9-dibromo-1,8-dimethyl-5-(2-methylpyridin-3-yl)imidazo[1,2-a]quinoxalin-4(5H)-one], the values for the IC50 in data set [2], in data set [3] and in data set [4] were 100 to 1000 nM, 1 to 100 nM and greater than 10000 nM, respectively.

For `Cc1ncccc1-n1c(=O)c2ncc(C)n2c2cc(Cl)c(Br)cc21` [Example 86, 7-bromo-8-chloro-1-methyl-5-(2-methylpyridin-3-yl)imidazo[1,2-a]quinoxalin-4(5H)-one], the IC50 in data set [2] was 100 to 1000 nM; in data set [3], 100 to 1000 nM; in data set [4], greater than 10000 nM.

On to `O=c1c2nccn2c2cc(Cl)c(Br)cc2n1-c1cccnc1C1CC1` [Example 87, 7-bromo-8-chloro-5-(2-cyclopropylpyridin-3-yl)imidazo[1,2-a]quinoxalin-4(5H)-one], for which the IC50 in data set [2] is 1 to 100 nM; in data set [3], 1 to 100 nM; in data set [4] it was greater than 10000 nM.

Consider `Cc1ncccc1-n1c(=O)c2ncc(Br)n2c2cc(Cl)c(Br)cc21` [Example 88, 1,7-dibromo-8-chloro-5-(2-methylpyridin-3-yl)imidazo[1,2-a]quinoxalin-4(5H)-one], for which the results for the IC50 in data set [2], in data set [3] and in data set [4] were 100 to 1000 nM, 100 to 1000 nM and greater than 10000 nM, respectively.

As for `Cc1ncccc1-n1c(=O)c2ncc(Cl)n2c2cc(Cl)c(Br)cc21` [Example 89, 7-bromo-1,8-dichloro-5-(2-methylpyridin-3-yl)imidazo[1,2-a]quinoxalin-4(5H)-one], the IC50 in data set [2] was 100 to 1000 nM; in data set [3] it was 100 to 1000 nM; in data set [4], greater than 10000 nM.

On to `Cc1cc2c(cc1Br)n(-c1cccnc1Cl)c(=O)c1nccn12` [Example 91, 7-bromo-5-(2-chloropyridin-3-yl)-8-methylimidazo[1,2-a]quinoxalin-4(5H)-one], for which the IC50 was 1 to 100 nM in data set [2], 1 to 100 nM in data set [3] and greater than 10000 nM in data set [4].

In the case of `Cc1ncccc1-n1c(=O)c2nc(Br)c(C)n2c2cc(Cl)c(Br)cc21` [Example 92, 2,7-dibromo-8-chloro-1-methyl-5-(2-methylpyridin-3-yl)imidazo[1,2-a]quinoxalin-4(5H)-one], the IC50 in data set [2] is 100 to 1000 nM; in data set [3], greater than 10000 nM; in data set [4] it was greater than 10000 nM.

Take `Cc1cc2c(cc1C(F)(F)F)n(-c1cccnc1C)c(=O)c1nccn12` [Example 93, 8-methyl-5-(2-methylpyridin-3-yl)-7-(trifluoromethyl)imidazo[1,2-a]quinoxalin4(5H)-one]: the IC50 in data set [2] was 1 to 100 nM; in data set [3], 1 to 100 nM; in data set [4], greater than 10000 nM.

`Cc1ncccc1-n1c(=O)c2nccn2c2cc(Cl)c(C(F)(F)F)cc21` [Example 96, 8-chloro-5-(2-methylpyridin-3-yl)-7-(trifluoromethyl)imidazo[1,2-a]quinoxalin4(5H)-one]: the IC50 in data set [2] was 1 to 100 nM; in data set [3] it was 1 to 100 nM; in data set [4], greater than 10000 nM.

In the case of `Cc1ncccc1-n1c(=O)c2ncc(C)n2c2cc(Cl)c(C(F)(F)F)cc21` [Example 99, 8-chloro-1-methyl-5-(2-methylpyridin-3-yl)-7-(trifluoromethyl)imidazo[1,2-a]quinoxalin-4(5H)-one], the IC50 is 1 to 100 nM in data set [2], 1 to 100 nM in data set [3] and greater than 10000 nM in data set [4].

Consider `Cc1ncccc1-n1c(=O)c2nc(N(C)C)c(C)n2c2cc(Cl)c(C(F)(F)F)cc21` [Example 100, 8-chloro-2-(dimethylamino)-1-methyl-5-(2-methylpyridin-3-yl)-7-(trifluoromethyl)imidazo[1,2-a]quinoxalin-4(5H)-one], for which the IC50 in data set [2] is 100 to 1000 nM; in data set [3] it was 100 to 1000 nM; in data set [4] it was greater than 10000 nM.

For the molecule `Cc1ncccc1-n1c(=O)c2nccn2c2c(F)cc(Cl)cc21` [Example 101, 7-chloro-9-fluoro-5-(2-methylpyridin-3-yl)imidazo[1,2-a]quinoxalin-4(5H)-one], the figures for the IC50 in data set [2], in data set [3] and in data set [4] were 1 to 100 nM, 1 to 100 nM and greater than 10000 nM, respectively.

For the molecule `COc1cc(Cl)cc2c1n1ccnc1c(=O)n2-c1cccnc1C` [Example 102, 7-chloro-9-methoxy-5-(2-methylpyridin-3-yl)imidazo[1,2-a]quinoxalin-4(5H)-one], the IC50 in data set [2] is 1 to 100 nM; in data set [3] it was 1 to 100 nM; in data set [4], greater than 10000 nM.

Regarding `Cc1ncccc1-n1c(=O)c2nccn2c2c(OCC3CC3)cc(Cl)cc21` [Example 103, 7-chloro-9-(cyclopropylmethoxy)-5-(2-methylpyridin-3-yl)imidazo[1,2-a]quinoxalin-4(5H)-one], the results for the IC50 in data set [2], in data set [3] and in data set [4] were 1 to 100 nM, 1 to 100 nM and greater than 10000 nM, respectively.

For the molecule `CNc1cc(Cl)cc2c1n1ccnc1c(=O)n2-c1cccnc1C` [Example 105, 7-chloro-9-(methylamino)-5-(2-methylpyridin-3-yl)imidazo[1,2-a]quinoxalin-4(5H)-one], the IC50 in data set [2] was 1 to 100 nM; in data set [3], 1 to 100 nM; in data set [4] it was greater than 10000 nM.

For the molecule `COc1ncccc1-n1c(=O)c2nccn2c2cc(Cl)c(Br)cc21` [Example 107, 7-bromo-8-chloro-5-(2-methoxypyridin-3-yl)imidazo[1,2-a]quinoxalin-4(5H)-one], the IC50 in data set [2] is 1 to 100 nM; in data set [3] it was greater than 10000 nM; in data set [4], greater than 10000 nM.

In the case of `O=c1c2nccn2c2cc(Cl)c(Br)cc2n1-c1cccc2ncsc12` [Example 108, 5-(benzo[d]thiazol-7-yl)-7-bromo-8-chloroimidazo[1,2-a]quinoxalin-4(5H)-one], the IC50 in data set [2] was 1 to 100 nM; in data set [3], 100 to 1000 nM; in data set [4], 1000 to 10000 nM.

For `O=c1c2nccn2c2cc(Cl)c(Br)cc2n1-c1cccc2[nH]ccc12` [Example 109, 7-bromo-8-chloro-5-(1H-indol-4-yl)imidazo[1,2-a]quinoxalin-4(5H)-one], the IC50 was 1 to 100 nM in data set [2], 100 to 1000 nM in data set [3] and greater than 10000 nM in data set [4].

Take `CCc1ncccc1-n1c(=O)c2nccn2c2cc(Cl)c(C(F)(F)F)cc21` [Example 110, 8-chloro-5-(2-ethylpyridin-3-yl)-7-(trifluoromethyl)imidazo[1,2-a]quinoxalin-4(5H)-one]: the IC50 was 1 to 100 nM in data set [2], greater than 10000 nM in data set [3] and greater than 10000 nM in data set [4].

Regarding `COc1cc(C(F)(F)F)cc2c1n1ccnc1c(=O)n2-c1cccnc1C` [Example 113, 9-methoxy-5-(2-methylpyridin-3-yl)-7-(trifluoromethyl)imidazo[1,2-a]quinoxalin-4(5H)-one], the IC50 is 1 to 100 nM in data set [2], 1 to 100 nM in data set [3] and greater than 10000 nM in data set [4].
